These results are taken from publication PMC8750965, “The Isoquinoline-Sulfonamide Compound H-1337 Attenuates SU5416/Hypoxia-Induced Pulmonary Arterial Hypertension in Rats” (Cells, 2021).

The test system of assay [1] is phosphorylated MYPT1 in hPASMCs. Kind of assay: Western blot of MYPT1 phosphorylation (Thr696) in ET-1-stimulated hPASMCs. In kind it is cell-based, human. Particulars: compound 1 hour, then ET-1 0.1 µM 1 hour, ET-1 did not increase p-MYPT1.
The subject of assay [2] is phosphorylation of MLC in hPASMCs. Kind of assay: Western blot of MLC phosphorylation in ET-1-stimulated hPASMCs. Particulars: then ET-1 0.1 µM 1 h.
Experimental: Before stimulation, 2 × 10^5 hPASMCs were cultured with serum-starved medium (Humedia-SB containing 1% FBS and antibiotics [Kurabo]), followed by stimulation with serum-starved medium containing 0.1 µM ET-1 or 10 ng/mL recombinant PDGF and treatment with different reagents. The isolated proteins were separated and analyzed by western blotting.
proteins were then isolated with RIPA buffer (25 mM Tris-HCl [pH 7.6], 150 mM NaCl,
1% NP-40, 1% sodium deoxycholate, and 0.1% sodium dodecyl sulfate) containing prote-
ase inhibitors (Protease Inhibitor Cocktail; Nacalai Tesque, Kyoto, Japan) and phosphatase
inhibitors (PhosSTOP; Roche, Basel, Switzerland). Proteins from each sample were sepa-
rated by sodium dodecyl sulfate polyacrylamide gel electrophoresis and transferred onto
polyvinylidene difluoride (PVDF) membranes. The membranes were then blocked with
5% bovine serum albumin diluted in Tris-buffered solution containing 0.05% Tween 20
(TBS-T) for 1 hour at room temperature. The blocked membranes were incubated with
primary antibodies at 4°C overnight, followed by washing with TBS-T. The membranes
were then incubated with a secondary antibody for 1 h at room temperature. Bands were
visualized by a chemiluminescence reaction using Pierce ECL Western Blotting (Thermo
Fisher Scientific, Waltham, MA, CSA) and LAS-4000 (Fuji Film, Tokyo, Japan).
tein expression was normalized to that of -actin.
For the next assay, the system named is hPASMCs. The assay can be described thus: Cell proliferation assay (Cell Counting Kit-8) of PDGF-stimulated hPASMCs. The settings on record: 0.1–10 µM compound, PDGF 10 ng/mL, 72 h. (Formazan colour is commonly taken as a measure of viable cells.)
The test system of assay [3] is phosphorylation of mTOR in hPASMCs. The assay can be described thus: Western blot of mTOR phosphorylation in PDGF-stimulated hPASMCs. The settings on record: concentration not given, 1 h, then PDGF 10 ng/mL 1 h. Background: Immunoblotting shows a protein as a band on a membrane.

On to `COc1ccccc1Oc1c(NS(=O)(=O)c2ccc(C(C)(C)C)cc2)nc(-c2ncccn2)nc1OCCO` [Bosentan], for which, in assay [1], the “Ratio of p-MYPT1 (Thr696) to total MYPT1, difference versus ET-1 without compound” value is “insignificant”. Also, the “Phosphorylation of MLC (p-MLC/total MLC)” value in assay [2] (concentration not given, 1 h) is “the difference did not reach significant levels”.

For the compound `O=c1cc(N2CCOCC2)oc2c(-c3ccccc3)cccc12` [LY294002], the “Proliferation of hPASMCs induced by PDGF” value with hPASMCs was “suppressed the proliferation of hPASMCs induced by stimulation with PDGF in a concentration-dependent manner”. Besides, the “Phosphorylation of mTOR (phospho-/total mTOR)” value in assay [3] was “significantly reduced”.

Take `O=S(=O)(c1cccc2cnccc12)N1CCCNCC1` [Fasudil]: the “Proliferation of hPASMCs induced by PDGF” value with hPASMCs is recorded as “observed only at the highest concentration”. Besides, the “Phosphorylation of mTOR (phospho-/total mTOR)” value in assay [3] was “did not have a suppressive effect”. For the same compound, in assay [2] (10 μM compound 1 h), the “Phosphorylation of MLC (p-MLC/total MLC)” value is recorded as “significantly decreased”.
